The results in this text go back to article PMC2077808 (2007).

Test [1] has as its system ATP-ASAP (DNA, aptamer, single rA at cleavage site in DNA substrate, flanked by fluorescein-dT and DABCYL-dT) CTTCGGAGGAGAACCATAGTCGGGGGAGAAGATGTGTCCGTGCTATGGTTCGA
In words: fluorescence enhancement kinetics, MgZ DNAzyme cleavage sensor. As to conditions: 20 mM MgCl2; 50 mM HEPES pH 7.0, 0.001% Tween-20, room temperature; highest tested 1 mM.

Test [2] has as its system ADP-ASAP (DNA:RNA, aptamer, RNA aptamer with all-DNA 30-nt antisense element; single rA in DNA substrate flanked by fluorescein-dT and DABCYL-dT) GGAGACGAGGGGTCGAACCGTAGCCCGAAGGTAGGAAGAGTGCCCCGGACAAUCAGACACGGUCUCCACTCTTCCTAGCTATGGTTCGATCAAGA
The description is as above. As to conditions: 20 mM MgCl2.

Test [3] shares this test system. Description: initial rate of fluorescence enhancement, MgZ DNAzyme cleavage sensor. To be noted: 20 mM MgCl2, 50 mM HEPES pH 7.0, 0.001% Tween-20, room temperature, 5 nM ASAP, 1 µM MgZ.
Test [4] has as its system ATP-ASAP (DNA, aptamer, single rA at cleavage site in DNA substrate, flanked by fluorescein-dT and DABCYL-dT) CTTCGGAGGAGAACCATAGTCGGGGGAGAAGATGTGTCCGTGCTATGGTTCGA
The description is as above. To be noted: 20 mM MgCl2, 50 mM HEPES pH 7.0, 0.001% Tween-20, room temperature, 5 nM ASAP, 50 nM MgZ.

[5] abbreviates: 50 mM HEPES pH 7.0, 0.001% Tween-20, room temperature, highest tested 1 mM.

As to `Nc1nc2c(ncn2[C@@H]2O[C@H](COP(=O)(O)OP(=O)(O)OP(=O)(O)O)[C@@H](O)[C@H]2O)c(=O)[nH]1`, the binding entry in test [1] is on record as “no”.

With `Nc1ncnc2c1ncn2[C@@H]1O[C@H](CO)[C@@H](O)[C@H]1O`, the binding result in test [2] (setting [5]) was “no”.

As to `Nc1ncnc2c1ncn2[C@@H]1O[C@H](COP(=O)(O)O)[C@@H](O)[C@H]1O`, the binding result in test [2] (setting [5]) was “no”.

As for `Nc1ncnc2c1ncn2[C@@H]1O[C@H](COP(=O)(O)OP(=O)(O)O)[C@@H](O)[C@H]1O`, the “apparent K d” value in test [3] turned out to be 35 ± 3 µM.

As to `Nc1ncnc2c1ncn2[C@@H]1O[C@H](COP(=O)(O)OP(=O)(O)OP(=O)(O)O)[C@@H](O)[C@H]1O`, the “apparent K d” value in test [4] stood at 456 ± 47 µM. The binding result in test [2] (50 mM HEPES pH 7.0, room temperature, no signal at 200 µM, signal at 300-1000 µM) is given as “weak”.
